# Laboratory results: patent US11319300B2, “Polyfluoro-substituted aromatic heterocyclic derivative, pharmaceutical composition containing same, and applications thereof” (ZHEJIANG UNIVERSITY, priority 2017, dated 2022)
# pIC50: −log10 of the molar value. Marks after values point to notes of the source that are not given here.
# How the values were obtained:
# [1] = system: HGC27; experiment: Tumour cell proliferation inhibition, MTT assay, HGC27; assay type: cell-based, human; conditions: 72 hours
# [2] = system: MCF-7; experiment: Tumour cell proliferation inhibition, MTT assay, MCF-7; assay type: cell-based, human; conditions: 72 hours
# [3] = system: 786-O; experiment: Tumour cell proliferation inhibition, MTT assay, 786-O; assay type: cell-based, human; conditions: 72 hours
# [4] = system: HCT-116; experiment: Tumour cell proliferation inhibition, MTT assay, HCT-116; assay type: cell-based, human; conditions: 72 hours
# Procedure: Compound AZD5363 (NCT02208375, NCT02208375, NCT01625286), which have entered the clinical phase II study, was used as a positive control, and the compound was assayed against common tumour cell lines (human ovarian cancer cell line OVCAR-8 and human colon cancer cell line HCT-116) by MTT assay, at the same time, the akt1 enzyme inhibitory activity (IC50) was evaluated using a commercial Akt1 kit.
# 1) The pharmacological test method for the tumour cell proliferation inhibiting activity of the compound of the present invention was as follows:
# The first was the determination of in vitro tumour growth inhibitory activity and the preliminary structure-activity relationship study, and different solid tumour cell lines were used to determine the in vitro antitumour activity of the synthesized compounds.
# Experimental materials: cell lines: human ovarian cancer cells (OVCAR8), colon adenocarcinoma cells (HCT-116),
# Medium: OVCAR8: RPMI 1640+fetal calf serum
# Drug preparation method: dissolving the drug in DMSO to make a 50 mM of stock solution, and diluting it to a certain ratio to obtain 5 different concentrations.
# Tumour Cells being Cultured In Vitro:
# The selected tumour cells were incubated in a, 5% of CO2 cell incubator at 37° C., and passaged until the cell density was 70 to 90% (the adherent cells were passaged with Duck's EDTA) and used for subsequent experiments.
# The compound was dissolved in dimethyl sulfoxide (DMSO), diluted, and tumour cells were seeded into 4000 cells/200 μL/well in 96-well plates, and 1 μL of compound was added to each well to a final concentration of 50 μM, 10 μM, 2 μM, and 0.4 μM. 0.08 μM were incubated in a, 5% of CO2 cell incubator at 37° C. for 72 hours with DMSO (1%) as a blank control.
# The calculation formula of the cell inhibition rate is: cell inhibition rate %=(control group OD value−drug group OD value)/control cell OD value×100%, and the half inhibition concentration (IC50) was determined by the Bliss method.
# [5] = system: CEM-C1; experiment: Tumour cell proliferation inhibition, MTT assay, CEM-C1; assay type: cell-based, human; conditions: 72 hours
# [6] = target: T1, hERG potassium channel (Homo sapiens, UniProt Q12809); experiment: hERG potassium channel inhibition, manual whole-cell patch clamp in CHO hERG cells; assay type: cell-based; conditions: for hERG (Inhibition rate at 3 μM concentration): CHO hERG cells, patch clamp
# T1 construct: host or cells: CHO
# Procedure: A Sixty-Third Embodiment: hERG Potassium Channel Inhibition Activity Experiment
# The cells used in this assay were CHO cell lines transfected with hERG cDNA and stably expressing the hERG channel (supplied by Sophion Bioscience, Denmark). The cells were cultured in medium containing the following components (all from Invitrogen): Ham's F12 medium, 10% (v/v) inactivated fetal bovine serum, 100 μg/ml hygromycin B, and 100 μg/ml Geneticin. 2.1.2CHO hERG cells were grown in a Petri dish containing the above culture solution, and cultured in an incubator containing 5% of CO2 at 37° C. 24 to 48 hours prior to electrophysiological experiments, CHO hERG cells were transferred to circular glass slides placed in petri dishes and grown under the same culture and culture conditions as above. The density of CHO hERG cells on each circular slide requires that most cells achieve independent, individual requirements.
# 2. Compound Treatment and Dilution
# To obtain the IC50 of the compound, we selecte the following concentrations (30, 10, 3, 1, 0.3, and 0.1 μM) for testing. Prior to testing, the […] were first diluted to 10, 3, 1, 0.3, and 0.1 mM stock solution in gradual dilution with DMSO and then diluted to the final μM test concentration with extracellular fluid. The final concentration of DMSO in each of the other compound solutions was 0.1% except that the DMSO concentration in the 30 μM compound test solution was 0.3%. The positive control Cisapride (cishabili) was tested at a concentration of 0.1 μM. All compound solutions were sonicated and shaken for 5 to 10 minutes to ensure complete dissolution of the compound.
# 3. Electrophysiological Recording System and Data Analysis
# This experiment uses a manual patch clamp system (HEKA EPC-10 signal amplifier and digital conversion system, purchased from HEKA Electronics, Germany) for the recording of whole cell currents. Round slide with CHO hERG cells on the surface was placed in an electrophysiology recording cell under an inverted microscope. The extracellular fluid was continuously perfused in the recording tank (about 1 ml per minute). The experimental procedure uses conventional whole-cell patch clamp current recording techniques. Unless otherwise stated, the experiments were carried out at regular room temperature (˜25° C.). The cells were clamped at a voltage of −80 mV. The cell clamp voltage was depolarized to +20 mV to activate the hERG potassium channel, and after 5 seconds it was clamped to −50 mV to eliminate inactivation and generate tail current. The tail current peak was used as the value of the hERG current magnitude. After the hERG potassium current recorded in the above step was stabilized under the continuous extracellular fluid perfusion in the recording tank, the drug to be tested can be superimposed and filled until the inhibitory effect of the drug on the hERG current reaches a steady state. Generally, the recent three consecutive current recording lines were recombined as a criterion for judging whether or not the state is stable. After reaching a steady state, extracellular fluid perfusion rinse until hERG current returns to the size before adding drug. One cell can test one or more drugs, or multiple concentrations of the same drug, but need to be flushed with extracellular fluid between different drugs. Cisapride (cisapride, purchased from Sigma) was used in the experiment as a positive control to ensure that the cells used were of normal quality. The test data was analysed by HEKA Patchmaster, Microsoft Excel and data analysis software provided by Graphpad Prism.
# [7] = Oral pharmacokinetic experiment in SD rats; assay type: in vivo; conditions: oral administration; for 1/2 / AUC0-inf / AUC0-t / Cmax / Tmax: 20 mg/kg, mean n = 3; for Cmax / Tmax: rat
# Procedure: […] The blood sampling times of the tail vein administered by intragastric administration were 0.25, 0.5, 1, 2, 4, 6, 8, 10, 24 hours; the times of blood collection by intravenous administration were 0.05, 0.1, 0.17, 0.5, 1, 2, 4, 6, 8, 10, 24 hours. 0.3 ml of whole blood was taken, and after centrifugation, 0.1 ml of plasma was taken and analysed by LC-MS.
# [8] = system: human gastric cancer HGC27 nude mice xenografts; experiment: In vivo antitumour activity, human gastric cancer HGC27 nude mice xenografts; conditions: HGC27 xenograft, 50 mg/kg intragastric once a day; for Tumour volume D1: D1 (start)
# Procedure: (§1) A Sixty-Fifth Embodiment: In Vivo Antitumour Activity of Compounds
# (§2) 1) Establishment of a nude mouse xenograft model: 1×10^7 test tumour cells were injected into the armpit of nude mice, after three generations, HGC27 mouse tumour blocks were dissected and placed in a glass dish containing physiological saline, after the necrotic area was removed by incision, the tumour mass was cut into 1-2 mm^3 and inserted into the left axilla of the nude mouse with a trocar.
# (§3) 2) Animal grouping and drug delivery arrangements: after the tumour grows to an average volume of 100-300 mm^3, 20 mice were randomly grouped according to the tumour volume, and the above test animals were given the corresponding test substances by intragastric administration at a dose of 10 mL/kg with once a day.
# (§4) 3) Data measurement and statistics: The tumour volume was weighed and measured twice and dosing period was 21 days. On the 22nd day, after the body weight was weighed and the tumour volume was measured, the nude mice were sacrificed and the tumours were weighed to calculate the relative tumour volume (RTV), relative tumour growth rate (T/C) and tumour inhibition percentage (IR) for statistical testing. The calculation formula was as follows: (a) TV (tumour volume)=½×a×b^2, wherein a and b represent the length and width of the tumour respectively, (b) RTV (relative tumour volume)=Vt/V0, Where V0 is the tumour volume measured at the time of group administration (i.e. d0), Vt is the tumour volume at each measurement, (c) T/C (%)=TRTV/CRTV×100%, wherein TRTV is the RTV of treatment group, CRTV is the RTV of the solvent control group, (d) IR (%)=(1−TWt/TWc)×100%, wherein TWt is the tumour weight of the treatment group, and TWc is the tumour weight of the solvent control group.
# [9] = system: human ovarian cancer SKOV3 nude mice xenografts; experiment: In vivo antitumour activity, human ovarian cancer SKOV3 nude mice xenografts; conditions: SKOV3 xenograft, 50 mg/kg
# [10] = system: human kidney cancer 786-O nude mice xenografts; experiment: In vivo antitumour activity, human kidney cancer 786-O nude mice xenografts; conditions: 786-O xenograft; for Tumour volume D1: D 1 (start); for Tumour volume D1 / RTV: x ± SE; for Tumour volume D 21: D 21, x ± SE
# Procedure: [Worded in the source for another cell line; this cell line is reported under the same test.] as §1, §2, §3, §4
# [11] = same concentration (3 μM), ratio of inhibition rates
# T1 sequence (Q12809 whole entry): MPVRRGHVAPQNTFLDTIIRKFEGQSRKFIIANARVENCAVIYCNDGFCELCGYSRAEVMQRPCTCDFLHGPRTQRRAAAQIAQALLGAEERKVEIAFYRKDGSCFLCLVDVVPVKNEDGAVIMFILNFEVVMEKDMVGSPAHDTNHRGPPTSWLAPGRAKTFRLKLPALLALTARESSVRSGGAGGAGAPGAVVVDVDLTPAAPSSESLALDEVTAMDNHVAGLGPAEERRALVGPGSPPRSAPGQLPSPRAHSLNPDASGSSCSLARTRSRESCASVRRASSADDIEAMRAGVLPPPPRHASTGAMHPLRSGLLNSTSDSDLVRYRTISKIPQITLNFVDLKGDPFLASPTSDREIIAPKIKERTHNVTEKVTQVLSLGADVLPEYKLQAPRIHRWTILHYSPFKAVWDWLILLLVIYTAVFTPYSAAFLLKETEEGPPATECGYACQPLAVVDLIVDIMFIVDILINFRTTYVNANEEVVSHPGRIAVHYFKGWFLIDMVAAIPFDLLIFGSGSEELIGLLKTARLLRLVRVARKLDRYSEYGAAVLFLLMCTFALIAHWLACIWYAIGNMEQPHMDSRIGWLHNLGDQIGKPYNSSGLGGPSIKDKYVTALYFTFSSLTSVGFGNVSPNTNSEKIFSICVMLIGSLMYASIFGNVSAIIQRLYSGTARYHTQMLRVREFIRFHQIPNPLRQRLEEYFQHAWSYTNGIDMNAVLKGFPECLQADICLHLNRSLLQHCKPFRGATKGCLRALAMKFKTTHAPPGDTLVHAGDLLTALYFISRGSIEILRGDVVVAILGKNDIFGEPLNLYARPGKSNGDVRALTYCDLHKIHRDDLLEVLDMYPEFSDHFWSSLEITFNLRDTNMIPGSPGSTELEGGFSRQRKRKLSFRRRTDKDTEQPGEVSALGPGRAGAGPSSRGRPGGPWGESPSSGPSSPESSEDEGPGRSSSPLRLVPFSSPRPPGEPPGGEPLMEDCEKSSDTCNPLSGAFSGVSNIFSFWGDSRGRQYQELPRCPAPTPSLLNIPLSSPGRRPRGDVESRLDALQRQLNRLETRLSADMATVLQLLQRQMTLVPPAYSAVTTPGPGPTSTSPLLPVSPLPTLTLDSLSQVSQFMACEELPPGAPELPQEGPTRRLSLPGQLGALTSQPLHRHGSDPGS
structure (smiles),measurement,setting,value
Cn1nccc1-c1ccc(C(=O)N[C@@H]2CNCC[C@H]2c2ccc(F)c(F)c2)c(F)c1 [VII-1a],pIC50,[1],7.40
same,pIC50,[2],5.65
same,pIC50,[3],6.25
same,pIC50,[4],5.87
same,pIC50,[5],7.00
same,hERG (Inhibition rate at 3 μM concentration),[6],15.9%
same,1/2,[7],3.34 h
same,AUC0-inf,[7],1500 ng·h/mL
same,AUC0-t,[7],1480 ng·h/mL
same,Cmax,[7]; plasma,132 ng/mL
same,Tmax,[7]; plasma,4.17 h
same,RTV,[8],11.37 ± 3.07
same,T/C(%),[8],26.95%
same,Tumour volume D1,[8],213 ± 102 mm^3
same,Tumour volume D22,[8],1498 ± 206* mm^3
Cn1nccc1-c1ccc(C(=O)N[C@@H]2CNCC[C@H]2c2ccc(F)c(F)c2)c(F)c1.O=C(O)C[C@H](O)C(=O)O [VII-30],hERG (Inhibition rate at 3 μM concentration),[6],20%
same,hERG blocking effect relative to GSK2141795,[6]; [11],0.4
same,hERG blocking effect relative to compound 31 (WO2015/144021A1),[6]; [11],0.32
same,1/2,[7],3.63 h
same,AUC0-inf,[7],2390 ng·h/mL
same,AUC0-t,[7],2350 ng·h/mL
same,improvement of AUC0-t over VII-1a,[7]; salt versus free form VII-1a,58%
same,Cmax,[7]; in vivo,253 ng/mL
same,Tmax,[7]; in vivo,1.75 h
same,RTV,[8],7.29 ± 3.03
same,T/C(%),[8],17.27%
same,Tumour volume D1,[8],215 ± 88 mm^3
same,Tumour volume D22,[8],1157 ± 452* mm^3
same,T/C(%),[9],32.96%
same,Tumour volume D1,"[9]; D 1 (start), x ± SE",117 ± 65 mm^3
same,Tumour volume D22,"[9]; D 22, x ± SE",248 ± 19* mm^3
same,RTV,[9]; x ± SE,3.60 ± 2.67
same,T/C(%),[10]; 50 mg/kg,22.86%
same,Tumour volume D1,[10]; 50 mg/kg,125 ± 14 mm^3
same,Tumour volume D 21,[10]; 50 mg/kg,328 ± 105** mm^3
same,RTV,[10]; 50 mg/kg,2.62 ± 0.83
same,T/C(%),[10]; 100 mg/kg,9.26%
same,Tumour volume D1,[10]; 100 mg/kg,126 ± 13 mm^3
same,Tumour volume D 21,[10]; 100 mg/kg,127 ± 51** mm^3
same,RTV,[10]; 100 mg/kg,1.06 ± 0.43
